From patent publication US20080105961A1, “Ligands of the Molecule Fit (Agt-121) and their Pharmaceutical Use” (priority 2004, published 2008)
Marks after values point to notes of the source that are not given here.

How the values were obtained:
MC4R = target: T1, MC4R (Rattus norvegicus, UniProt P70596); assay: Feeding response to MT II after ODN or saline infusion; format: in vivo, Sprague Dawley rats
T1 construct: from tissue; host or cells: living Sprague Dawley rats (brain)
Method: To further investigate this relationship, antisense suppression of FIT in Sprague Dawley rats was again performed and these animals' responses to administration of the α-MSH analog MT II, a synthetic agonist of the MC4R and known suppressor of feeding. MT II effects on food intake and body weight in saline and jumbled ODN-treated control rats, as well as in FIT antisense-treated rats was measured.

MC3R and MC4R = conditions: ICV infusion, mice (Murphy et al. 1998); cited from earlier work
SH3GL2; endophilin 1 = target: T2, SH3GL2; endophilin 1 (human, UniProt Q99962 1-352); assay: yeast two-hybrid screen of a human brain cDNA library (14 clones)
T2 construct: Prey clone from a human brain cDNA library; not shown: not specified
Excerpt: The inventors utilised a yeast two-hybrid system which incorporates modifications by Chevray and Nathans (1992), and Vidal et al. (1996) to screen a human brain cDNA library.

FIT gene expression = FIT gene expression in the hypothalamus of monogenic mouse models of obesity; format: in vivo; conditions: leptin-treated ob/ob mice, mean ± SEM
Method: To investigate the molecular pathway via which FIT affect food intake, FIT gene expression was measured in the hypothalamus of several different monogenic mouse models of obesity. […] FIT gene expression was not altered in other genetic models of obesity such as leptin deficient ob/ob mice, MC3R knockout mice and MC4R knockout mice.

T1 sequence (P70596 whole entry, the tested form may be a part): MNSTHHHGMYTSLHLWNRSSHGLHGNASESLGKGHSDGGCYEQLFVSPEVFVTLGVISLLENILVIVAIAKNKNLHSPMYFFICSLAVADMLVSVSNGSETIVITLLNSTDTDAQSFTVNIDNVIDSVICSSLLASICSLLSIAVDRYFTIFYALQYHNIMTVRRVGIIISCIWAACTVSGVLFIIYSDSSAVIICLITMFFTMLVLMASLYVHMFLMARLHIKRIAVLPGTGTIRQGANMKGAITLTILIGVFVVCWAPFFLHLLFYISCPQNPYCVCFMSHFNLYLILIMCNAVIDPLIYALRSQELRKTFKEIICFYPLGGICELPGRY
T2 sequence (Q99962 whole entry): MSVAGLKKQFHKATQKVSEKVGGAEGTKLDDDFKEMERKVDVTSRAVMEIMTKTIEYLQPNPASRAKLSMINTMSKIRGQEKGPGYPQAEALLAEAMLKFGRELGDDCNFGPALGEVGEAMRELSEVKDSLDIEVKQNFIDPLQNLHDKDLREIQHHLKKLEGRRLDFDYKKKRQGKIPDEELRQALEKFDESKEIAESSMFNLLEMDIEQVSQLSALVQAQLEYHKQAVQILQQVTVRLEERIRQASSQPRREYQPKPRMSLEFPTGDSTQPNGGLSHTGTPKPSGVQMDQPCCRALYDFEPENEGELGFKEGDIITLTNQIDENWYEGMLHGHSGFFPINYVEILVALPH

With MT II the “Δ FI” value (MC4R; 24 hr food intake post minus pre injection, mean ± SEM) was −0.04 ± 0.01 g/g BW, the “24 hr FI post injection” value (MC4R; food intake after MT II or vehicle injection, mean ± SEM) was 0.03 ± 0.01^a g/g BW and the “24 hr FI pre injection” value (MC4R; food intake, during ICV infusion, before MT II or vehicle injection, mean ± SEM) was 0.07 ± 0.01 g/g BW. For the same molecule, the “inhibitory effect on food intake in rats pre-treated with FIT antisense ODN versus control groups” value (MC4R; not statistically significantly different from control groups) was “tended to have a greater inhibitory effect” and the “effect on food intake” value (MC3R and MC4R) was “decrease food intake”.

B1: FIT-NP (FIT N-terminal plus proline-rich region), yeast two-hybrid bait (other, not shown: small tags and cut ends)
chain: MMEGLKKRTRKAFGIRKKEKDTDSTGSPDRDGMQPSPHELPYHSKAECAREGGKKASKKSNGAPNGFYAEIDWERYNSPELDEEGYSIRPEEPGSTKGKHFYSSSESEEEEESHKKFNIKIKPLQSKDILKNAATVDELKASIGNIALSPSPVRKSPRRSPGAIKRNLSSEEVARPRRSTPTPELTSKKPLDDTLALAPLFGPPLESAFDGHKTEVLLDQPEIWGSGQPVNPSMESPKLARPFPTGTPPPLPPKTVPATPPRTGSPLTVATGNDQAATEAKIEKPPSISDLDSIFGPVLSPKSVAVNTEETWVHFSDASPEHVTPELTPREKVVTPPAASDIPADSPTPGPPGPPGSAGPPGPPGPRNVPSPLNLEEVQKKVAEQTFIKDDYLETLSSPKECGLGQRETPPPPPPPTYRTVVSSPGPGSGSGTGTASGASSPARPATPLVPCSCSTPPPPPPRPPSRPKLPPGKPGVGDVSRPFSPPIHSSSPPPIAPL
notes: Truncated fragment of FIT used as bait in a yeast two-hybrid screen of a human brain cDNA library; also called AGT-121
B1: binds (SH3GL2; endophilin 1).

B2: Leptin: leptin given to leptin deficient ob/ob mice (protein, UniProt P41160 22-167, looked up)
Leptin: VPIQKVQDDTKTLIKTIVTRINDISHTQSVSAKQRVTGLDFIPGLHPILSLSKMDQTLAVYQQVLTSLPSQNVLQIANDLENLRDLLHLLAFSKSCSLPQTSGLQKPESLDGVLEASLYSTEVVALSRLQGSLQDILQQLDVSPEC
Work on B2 yielded an FIT gene expression (FIT gene expression) of 1.3 ± 0.3 arbitrary units.
